These results are taken from paper PMC8838850, “Synthesis, Antimicrobial, Anti-Virulence and Anticancer Evaluation of New 5(4H)-Oxazolone-Based Sulfonamides” (Molecules, 2022).

By melting point is commonly meant the temperature, or range, at which the solid turns liquid.

The subject of data set [1] is P. aeruginosa ATCC 47,085. The data set can be described thus: Biofilm formation assay (crystal violet, light microscopy). The format is cell-based, Pseudomonas aeruginosa. As to conditions: sub-MIC (½ MIC), crystal violet method. On the procedure: Bacterial virulence is regulated via a quorum sensing (QS) system in an inducer/receptor manner. Diminishing bacterial virulence is an advantageous strategy to decrease the development of bacterial resistance. In this direction, anti-virulence and anti-QS activities have been explored in several studies as reviewed. The ability of P. aeruginosa or S. aureus to form biofilms was assayed in the absence or presence of tested compounds at sub-MIC. […] The experiment was conducted in triplicate and a one-way ANOVA test was employed to test the statistical significance using Graphpad Prism 8 software. The results were significant statistically where p values < 0.05. Moreover, microscopic visualization of biofilm under the effect of tested compounds was also performed by light microscopy. Representative images for the inhibitory effects on S. aureus and P. aeruginosa biofilm formation are shown (Figure 3C,D). The microscopic images show a marked reduction in both the thickness of and surface area covered by the biofilms in presence of the tested compound.
In order to evaluate the ability of the tested compounds to inhibit the biofilm formation, a strong biofilm forming P. aeruginosa ATCC 47,085 [47, 66] and S. aureus ATCC 6538 [67] strains were used. As described earlier, suspensions of tested strains were prepared from overnight cultures in TSB and their optical densities were adjusted to OD600 of 0.4 (1×10^8 CFU/mL). Aliquots of 10 μL of the suspensions were added to 1 mL amounts of fresh TSB with or without sub-MICs of tested compounds. […] The non-adherent cells were removed, the wells were washed with sterile PBS, and left to dry. The attached biofilm forming cells were fixed with methanol for 25 min and stained with 1% crystal violet for 30 min. The excess dye was washed out and the crystal violet staining adhered biofilm forming cells were eluted by glacial acetic acid (33%). The experiment was conducted in triplicate and the absorbance was measured at 590 nm. The absorbances of tested strains treated with different compounds were expressed as mean ± standard error of percentage change from untreated tested strains control. The percentages of biofilm inhibition were calculated employing the following formula: (absorbance of control—absorbance in presence of tested compounds)/absorbance of control.

Consider `Cc1ccc(S(=O)(=O)Nc2ccccc2C2=N/C(=C/c3ccccc3)C(=O)O2)cc1` [Compound 9a, (E)-N-(2-(4-Benzylidene-5-oxo-4,5-dihydrooxazol-2-yl)phenyl)-4-methylbenzenesulfonamide], for which the melting point lay within 214 to 216 °C. The “Inhibition of biofilm formation” value in data set [1] is listed as “highest abilities to inhibit biofilm formation”. Consider `COc1ccc(/C=C2/N=C(c3ccccc3NS(=O)(=O)c3ccc(C)cc3)OC2=O)cc1` [Compound 9b, (E)-N-(2-(4-(4-Methoxybenzylidene)-5-oxo-4,5-dihydrooxazol-2-yl)phenyl)-4-methylbenzenesulfonamide], for which, in data set [1], the “Inhibition of biofilm formation” value is “highest abilities to inhibit biofilm formation”.

As for `Cc1ccc(S(=O)(=O)Nc2ccccc2C2=N/C(=C/c3ccc([N+](=O)[O-])cc3)C(=O)O2)cc1` [Compound 9f, (E)-4-Methyl-N-(2-(4-(4-nitrobenzylidene)-5-oxo-4,5-dihydrooxazol-2-yl)phenyl)benzenesulfonamide], the melting point fell in the range of 250 to 252 °C. In data set [1], the “Inhibition of biofilm formation” value is given as “highest abilities to inhibit biofilm formation”.
